We go through one compound from patent publication US20150258105A1, “METHODS FOR ACUTE AND LONG-TERM TREATMENT OF ALCOHOL DEPENDENCE” (DemeRx, Inc., priority 2014, published 2015).

A value given as a limit tells only on which side of the number the result lay.

A short description of this data set: Pharmacokinetics of noribogaine in healthy volunteers, ascending single oral dose (plasma, LCMSMS). The note with it: for AUC0-216 / AUC0-∞ / Cmax / Tmax / t1/2: fasted healthy volunteers, mean (SD), n = 6.
Setting [1] is: 30 mg single oral noribogaine dose, plasma.
Setting [2] is: 60 mg single oral noribogaine dose, plasma.
[3] abbreviates: across dose groups, healthy volunteers, plasma.

Regarding `CC[C@H]1C[C@@H]2C[C@H]3c4[nH]c5ccc(OC6OC(C(=O)O)C(O)C(O)C6O)cc5c4CCN(C2)[C@@H]13` (some centres unmarked) [Noribogaine glucuronide, noribogaine glucuronide], under setting [1], the AUC0-216 is 25.7 (9.1) ng · hr/ml, the “AUC0-∞” value is recorded as 25.8 (9.3) ng · hr/ml, the Cmax was 1.8 (0.6) ng/ml and the Tmax is reported as 3.0 (0.6) hr. Also, the t1/2 under setting [1] is 20.6 (4.9) hr. Further, under setting [2], the AUC0-216 was 65.0 (21.5) ng · hr/ml, the “AUC0-∞” value is recorded as 67.1 (21.9) ng · hr/ml, the Cmax is on record as 4.1 (1.2) ng/ml and the Tmax was 3.8 (1.2) hr. Also, the t1/2 under setting [2] is 23.1 (3.0) hr. Under setting [3], the mean half-life estimates is 21 to 23 h and the “time of peak concentrations after oral noribogaine dosing” value was 3 to 4 h. Further, the “time by which detected in plasma of all subjects” value (after 30 mg or 60 mg oral noribogaine, healthy volunteers) was at most 0.75 h. In addition, where the note is “both dose groups (30 mg and 60 mg)”, the “proportion of noribogaine glucuronide Cmax and AUC relative to noribogaine” value was 3-4%.
